Reference: paper PMC6271559, “Synthesis and Evaluation of 2,4-Disubstituted Quinazoline Derivatives with Potent Anti-Angiogenesis Activities” (Molecules, 2014)
Like-named read-outs stand apart in the source and are kept apart here.

Assays:
[1] = system: HUVEC adhesion to collagen; test: HUVEC adhesion assay on type I collagen; type: cell-based, human; conditions: adhesion of HUVEC on collagen, 37 °C; for inhibition at 15 µM / inhibition at 30 µM: Homo sapiens, HUVEC
Source text: A perfect angiogenesis inhibitor must be show lower toxicity toward HUVECs, while showing high inhibitive capability towards the proliferation, migration, and differentiation of HUVECs. To assess the inhibitory effects of 2,4-disubstituted quinazoline derivatives, three assays were used: HUVEC adhesion assay, HUVEC migration assay and CAM assay. Firstly, to test the inhibitory effects of quinazoline derivatives on the attachment of endothelial cells to type I collagen, cell adhesion assays were carried out.
Cell adhesion assay was carried out by a reported method with slight modification. Wells of a 96-well plate were coated at room temperature overnight with rat trail tendon collagen type I (2 μg) in PBS in a final volume of 100 μL. The wells were washed three times with PBS ([…]) and then blocked with 0.2% bovine serum albumin (BSA) in PBS ([…]) for 2 h at 37 °C in a cell culture incubator. The wells were then washed three times with PBS ([…]). HUEVCs were detached from the dish, resuspended in DMEM, and added (50 μL, 10^4 cells/mL) to each well followed by the related compounds (50 μL) at various concentrations. The plates were incubated for 1 h or 3 h at 37 °C and then washed three times with PBS (100 μL). The attached cells were fixed and stained with 0.2 % crystal violet in 20% methanol for 10 min, then washed three times with PBS ([…]). The cells were solubilized by 2% SDS and the OD was measured at 570 nm. Attachment was determined by both 1 and 3 h as described above. Each compound was tested in triplicate and each experiment was repeated three times.

[2] = system: CNE-2 (human nasopharyngeal cancer) cells; test: MTT cytotoxicity assay, CNE-2; type: cell-based; conditions: 48 h, mean of three independent assays
Source text: (§1) In the early 80s, scientists proposed anti-angiogenesis as a potential target in cancer therapy. Much research in the past 30 years has targeted tumor angiogenesis as a means of inhibiting the process of tumor-caused blood vessel formation. Endothelial cells, which come from the inner lining of blood vessels, makes up a fundamental part of new blood vessels as well as pre-existing ones. A complete angiogenesis process includes the proliferation, migration, and differentiation of endothelial cells, so a great deal of angiogenesis inhibitors discovered to date target endothelial cells. We thus employed a cell proliferation assay to evaluate the cytotoxicity of quinazoline derivatives against both normal (HUVEC) and tumor cell lines (CNE-2, PC-3, and SMMC-7721 cell lines) so we can screen some molecules that have cytotoxicity against tumor cells but low cytotoxicity against HUVECs. Meanwhile, an appropriate concentration range of these compounds could be determined to further study their inhibitive effects against the proliferation, migration, and differentiation of HUVECs. The cytotoxic activities of quinazoline derivatives against human tumor cell lines CNE-2 (human nasopharyngeal cancer), PC-3 (human prostatic carcinoma), SMMC-7721 (human liver cancer) and Human Umbilical Vein Endothelial Cells (HUVECs) were determined by using the MTT cytotoxicity assay.
(§2) HUVEC, CNE-2, PC-3, and 7721 cell lines were seeded on 96-well plates at a concentration of 5,000 cells per well and exposed to various concentrations of quinazoline derivatives. After 48 h of treatment at 37 °C in a humidified atmosphere of 5% CO2, 5 mg/mL MTT solution (10 μL) was added to each well and further incubated for 4 h. Each well was then added dimethyl sulfoxide (DMSO, 100 μL), and the optical density (OD) was recorded at 490 nm. All measurements were done in triplicate, and the IC50 values were derived from the mean OD values of the triplicate tests versus drug concentration curves.

[3] = MTT cytotoxicity assay, HUVEC; type: cell-based; conditions: human, HUVEC (human umbilical vein endothelial cells), mean of three independent assays
Source text: as §1, §2

[4] = system: SMMC-7721 (human liver cancer) cells; test: MTT cytotoxicity assay, SMMC-7721; type: cell-based; conditions: 48 h, mean of three independent assays
Source text: as §1, §2

[5] = system: PC-3 (human prostatic carcinoma) cells; test: MTT cytotoxicity assay, PC-3; type: cell-based; conditions: Prostatic carcinoma cell, 48 h, mean of three independent assays
Source text: as §1, §2

[6] = system: chick embryo chorioallantoic membrane (CAM); test: CAM angiogenesis assay; type: in vivo; conditions: 30 μg/10 μL on filter disc, 48 h
Protocol: CAMs treated with 0.9% NaCl solution (negative control) were surrounded by all antoic vessels as newly-formed capillaries converging radially toward the sponge in a “spoked wheel” pattern (number of vessels 24 ± 3).
The in vivo CAM angiogenesis model as initially described by Folkman and then modified by Maragoudakis was used. Fertilized chicken eggs were used after incubating them for 8 days. A 1 cm × 1 cm window was made in the shell to create a pocket to expose the CAM. A filter disc with 0.9% NaCl solution or 30 μg/10 μL of compounds was then placed upon the CAM from 10 eggs per treatment and 48 h later, the CAMs were fixed with 4% paraformaldehyde and the vessel number from three random fields around the filter disc were pictured using a microscope.

[7] = 1 h, 1 h, 15 μM, read-out: 1 h Inhibition Rate % Dose 15 μM
[8] = 1 h, 1 h, 30 μM, read-out: 1 h Inhibition Rate % Dose 30 μM
[9] = 3 h, 3 h, 15 μM, read-out: 3 h Inhibition Rate % Dose 15 μM
[10] = 3 h, 3 h, 30 μM, read-out: 3 h Inhibition Rate % Dose 30 μM

melting point [°C]	SMILES	inhibition at 15 µM [1, 7] [%]	inhibition at 30 µM [1, 8] [%]	inhibition at 15 µM [1, 9] [%]	inhibition at 30 µM [1, 10] [%]	IC50 [2] [µM]	IC50 at 48 h [3] [µM]	IC50 [4] [µM]	IC50 [5] [µM]	3 h Inhibition Rate % Dose 15 μM ([1]; 3 h, 15 μM) [%]	3 h Inhibition Rate % Dose 30 μM ([1]; 3 h, 30 μM) [%]	inhibition of angiogenesis in CAM assay [6]
180 to 182	CN(C)CCCNc1nc(-c2ccccc2NC(=O)CN2CCCCC2)nc2ccccc12 [Compound 10a, N-(2-(4-(3-(Dimethylamino)propylamino)quinazolin-2-yl)phenyl)-2-(piperidin-1-yl)acetamide]	26.7 ± 0.1	31.6 ± 0.3	29.2 ± 0.2	37.6 ± 0.1	13.6 ± 0.2	45.7 ± 0.2	18.1 ± 0.2	16.8 ± 0.1			
174 to 175	CN(C)CCCNc1nc(-c2ccccc2NC(=O)CN2CCCC2)nc2ccccc12 [Compound 10b, N-(2-(4-(3-(dimethylamino)propylamino)quinazolin-2-yl)phenyl)-2-(pyrrolidin-1-yl)acetamide]	28.3 ± 0.1	33 ± 0.2	27.8 ± 0.2	34.8 ± 0.2	14.9 ± 0.2	39.3 ± 0.3	17.9 ± 0.4	16.7 ± 0.2			
	CCN(CC)CC(=O)Nc1ccccc1-c1nc(NCCCN(C)C)c2ccccc2n1 [Compound 10c, N-(2-(4-(3-(Dimethylamino)propylamino)quinazolin-2-yl)phenyl)-2-(diethylamino)acetamide]	18.9 ± 0.3	27.8 ± 0.2	16.4 ± 0.4	29.5 ± 0.1	17.1 ± 0.4	56.2 ± 0.2	19.4 ± 0.1	17.6 ± 0.1			
174 to 175	CN(C)CCCNc1nc(-c2ccccc2NC(=O)CN2CCN(C)CC2)nc2ccccc12 [Compound 10d, N-(2-(4-(3-(Dimethylamino)propylamino)quinazolin-2-yl)phenyl)-2-(4-methylpiperazin-1-yl)acetamide]	34.8 ± 0.2	44.6 ± 0.4		63.4	10.5 ± 0.3	38.7 ± 0.1	10.4 ± 0.1	11.3 ± 0.5	32.5 ± 0.4	47.2 ± 0.1	
179 to 181	CN(C)CCCNc1nc(-c2ccccc2NC(=O)CN2CCOCC2)nc2ccccc12 [Compound 10e, N-(2-(4-(3-(Dimethylamino)propylamino)quinazolin-2-yl)phenyl)-2-morpholinoacetamide]		14.3 ± 0.1	7.9 ± 0.3	17.6 ± 0.3	19.7 ± 0.2	79.8 ± 0.1	22.6 ± 0.2	20.5 ± 0.3			
178 to 179	CN(C)CCCNc1nc(-c2ccccc2NC(=O)CCN2CCCCC2)nc2ccccc12 [Compound 11a, N-(2-(4-(3-(Dimethylamino)propylamino)quinazolin-2-yl)phenyl)-3-(piperidin-1-yl)propanamide]	37.4 ± 0.3	49.6 ± 0.5	38.2 ± 0.1	59.3 ± 0.1	14.2 ± 0.1	57.4 ± 0.5	19.9 ± 0.4	18.1 ± 0.2			
163 to 165	CN(C)CCCNc1nc(-c2ccccc2NC(=O)CCN2CCCC2)nc2ccccc12 [Compound 11b, N-(2-(4-(3-(Dimethylamino)propylamino)quinazolin-2-yl)phenyl)-3-(pyrrolidin-1-yl)propanamide]	35.4 ± 0.3	54.3 ± 0.3	35.2 ± 0.3	51.7 ± 0.2	14.3 ± 0.1	46.3 ± 0.3	15.1 ± 0.2	17.4 ± 0.1			
158 to 160	CCN(CC)CCC(=O)Nc1ccccc1-c1nc(NCCCN(C)C)c2ccccc2n1 [Compound 11c, N-(2-(4-(3-(Dimethylamino)propylamino)quinazolin-2-yl)phenyl)-3-(diethylamino)propanamide]	29.9 ± 0.2	38.7 ± 0.2	29.4 ± 0.2	36.3 ± 0.4	16.8 ± 0.4	66.8 ± 0.3	13.8 ± 0.1	18.7 ± 0.3			
165 to 167	CN(C)CCCNc1nc(-c2ccccc2NC(=O)CCN2CCOCC2)nc2ccccc12 [Compound 11e, N-(2-(4-(3-(Dimethylamino)propylamino)quinazolin-2-yl)phenyl)-3-morpholinopropanamide]	27.4 ± 0.3	32.3 ± 0.2	25.6 ± 0.3	36.4 ± 0.3	20.1 ± 0.2	84.9 ± 0.3	20.9 ± 0.3	19.6 ± 0.2			
159 to 160	CN(C)CCCNc1nc(-c2ccccc2NC(=O)CCCN2CCCCC2)nc2ccccc12 [Compound 12a, N-(2-(4-(3-(Dimethylamino)propylamino)quinazolin-2-yl)phenyl)-4-(piperidin-1-yl)butanamide]	33.6 ± 0.2	57.9 ± 0.3	40.6 ± 0.3	61.2 ± 0.3	17.3 ± 0.3	41.7 ± 0.3	16.5 ± 0.1	17.7 ± 0.2			
	CN(C)CCCNc1nc(-c2ccccc2NC(=O)CCCN2CCCC2)nc2ccccc12 [Compound 12b]	29.8 ± 0.1	49.3 ± 0.1	38.4 ± 0.2	60.1 ± 0.2	16.4 ± 0.3	39.4 ± 0.1	15.3 ± 0.2	18.9 ± 0.4			
155 to 157	CN(C)CCCNc1nc(-c2ccccc2NC(=O)CCCN2CCN(C)CC2)nc2ccccc12 [Compound 12d, N-(2-(4-(3-(Dimethylamino)propylamino)quinazolin-2-yl)phenyl)-4-(4-methylpiperazin-1-yl)butanami-de]	46.8 ± 0.2	63.7 ± 0.2	47.5 ± 0.3	63.4 ± 0.3	11.4 ± 0.1	40.2 ± 0.2	10.3 ± 0.5	10.9 ± 0.2			excellent inhibition of angiogenesis
152 to 154	CN(C)CCCNc1nc(-c2ccccc2NC(=O)CCCN2CCOCC2)nc2ccccc12 [Compound 12e, N-(2-(4-(3-(Dimethylamino)propylamino)quinazolin-2-yl)phenyl)-4-morpholinobutanamide]	26.5 ± 0.2	34.7 ± 0.2	17.2 ± 0.4	39.4 ± 0.2	20.6 ± 0.2	76.3 ± 0.2	20.8 ± 0.3	21.9 ± 0.2			
